Measured values reported in US10052306B2 (LUC THERAPEUTICS, INC., priority 2013, dated 2018).

Target: NR1/NR2B (Homo sapiens (Human), UniProt Q05586+Q13224)
Assay: Cell assay: FDSS Ca2+ influx inhibition in HEK293 cells expressing NR1/NR2B;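 further: Fluo-8 Ca2+ signal read on Hamamatsu FDSS 6000 after glutamate, glycine and Ca2+ challenge following 10 min compound preincubation, end/baseline fluorescence ratio compared with MK801 control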
Conditions: Ca2+ influx
[1] = NR2B NAM IC50, HEK293 cells expressing NR1/NR2B
[2] = Binned Activity, HEK293 cells expressing NR1/NR2B, binned NR2B NAM IC50

Chain of NR1/NR2B (Q13224 27-1484, other chains not shown): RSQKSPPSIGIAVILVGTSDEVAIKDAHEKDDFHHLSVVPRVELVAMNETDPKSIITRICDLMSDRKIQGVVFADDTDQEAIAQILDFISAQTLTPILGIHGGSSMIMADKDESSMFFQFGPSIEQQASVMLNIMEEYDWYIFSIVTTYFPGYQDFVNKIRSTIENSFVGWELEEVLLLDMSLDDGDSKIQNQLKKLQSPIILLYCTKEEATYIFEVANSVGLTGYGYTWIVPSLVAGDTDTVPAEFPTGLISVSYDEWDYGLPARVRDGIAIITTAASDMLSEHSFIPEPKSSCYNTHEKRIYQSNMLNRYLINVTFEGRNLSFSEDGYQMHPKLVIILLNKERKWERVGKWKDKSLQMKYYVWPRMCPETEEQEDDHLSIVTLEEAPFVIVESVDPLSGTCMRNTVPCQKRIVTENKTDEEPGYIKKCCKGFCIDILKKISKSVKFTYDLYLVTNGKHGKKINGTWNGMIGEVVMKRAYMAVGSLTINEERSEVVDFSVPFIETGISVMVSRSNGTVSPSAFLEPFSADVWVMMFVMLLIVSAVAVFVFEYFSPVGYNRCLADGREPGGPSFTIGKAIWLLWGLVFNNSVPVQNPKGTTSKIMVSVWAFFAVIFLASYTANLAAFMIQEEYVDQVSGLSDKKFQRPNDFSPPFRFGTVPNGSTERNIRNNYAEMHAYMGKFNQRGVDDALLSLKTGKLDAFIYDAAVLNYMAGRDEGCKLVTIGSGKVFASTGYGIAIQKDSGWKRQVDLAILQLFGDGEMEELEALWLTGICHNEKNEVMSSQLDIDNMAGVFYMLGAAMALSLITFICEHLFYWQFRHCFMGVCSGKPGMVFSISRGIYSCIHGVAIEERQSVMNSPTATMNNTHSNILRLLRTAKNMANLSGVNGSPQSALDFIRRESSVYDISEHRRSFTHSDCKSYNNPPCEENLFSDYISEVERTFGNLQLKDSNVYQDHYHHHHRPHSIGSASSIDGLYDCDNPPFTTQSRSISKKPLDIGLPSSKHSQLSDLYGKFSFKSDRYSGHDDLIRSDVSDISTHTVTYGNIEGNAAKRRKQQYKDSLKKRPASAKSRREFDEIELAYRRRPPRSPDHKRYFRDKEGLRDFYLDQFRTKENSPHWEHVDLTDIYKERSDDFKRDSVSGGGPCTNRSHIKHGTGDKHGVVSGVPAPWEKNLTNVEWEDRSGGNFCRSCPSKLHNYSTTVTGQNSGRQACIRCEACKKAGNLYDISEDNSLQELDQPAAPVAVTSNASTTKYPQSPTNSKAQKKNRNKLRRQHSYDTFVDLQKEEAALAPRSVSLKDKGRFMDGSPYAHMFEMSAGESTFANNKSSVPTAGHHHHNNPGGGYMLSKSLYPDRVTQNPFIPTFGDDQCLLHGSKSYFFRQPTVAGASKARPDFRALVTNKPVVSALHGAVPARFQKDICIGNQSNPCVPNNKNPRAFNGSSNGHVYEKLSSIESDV
Procedure: Cell Culture and plating: HEK293 cells expressing NR1/NR2B (Chantest, Cleveland, Ohio) were grown to 70-80% confluency as an adherent monolayer in standard tissue culture flasks at 37° C., 5% CO2 per supplier's instructions. NR2B expression was induced by incubation with 0.3-0.4 μg/ml tetracycline in the presence of 4 mM ARL-15896 for 18-24 hours under the same growth conditions, then transferred to 30° C. for another 3-5 hours.
After induction, cell culture medium was removed and cells were rinsed once with Ca^2+ and Mg^2+-free Dulbecco's phosphate buffered saline. Cells were then removed from the flask using TrypLE™ Express (Life Technologies) according to the manufacturer's instructions and collected to 50 ml centrifuge tubes. Following two washes in Ca^2+/Mg^2+-free HBSS with 20 mM HEPES (HHnoCa), cells were counted and viability assessed using trypan blue. To load cells with Ca^2+-sensitive dye, they were resuspended in fluo-8 plus Component B (AAT Bioquest Products) diluted in HHnoCa and incubated 15 minutes at 37° C., followed by 30 minutes at room temp (in dark). Cells were then washed and resuspended in HHnoCa to remove extracellular dye and plated in 384-well plates (Falcon, uncoated) at 20,000-30,000 cells/well in a final volume of 25 μl/well.
FDSS Assay: To each well of the plate, 10 μL test compound, control (MK801) or HHnoCa buffer was added to a final concentration of 10 μM with a final concentration of DMSO of 0.1%. Following 10 minutes pre-incubation in the dark, plates are loaded onto the Hamamatsu FDSS 6000. After collecting baseline fluorescence images, 3 μM glutamate, 3 glycine, and 1 mM Ca^2+ in HHnoCa buffer is added to each well, and Ca^2+ is recorded for 3 minutes. Data were processed by computing ratio of fluorescence at the end of data collection to baseline fluorescence to assess degree of Ca′ influx inhibition relative to that observed in MK801.

SMILES | IC50 [1] [nM] | IC50 [2] [nM]
Oc1ccc(C(O)CN2C[C@H]3CN(Cc4ccccc4)C[C@H]3C2)nc1 (mixture of isomers) [Example 329, rac-6-(2-(5-benzylhexahydropyrrolo [3,4-c]pyrrol-2(1H)-yl)-1-hydroxyethyl) pyridin-3-ol] | 380 | –
COc1cccc([C@]2(O)C[C@H]3CN(C(=O)Nc4cccnc4)C[C@H]3C2)c1 [Cmpd 46, 5-hydroxy-5-(3-methoxyphenyl)-N-(pyridin-3-yl)-octahydrocyclopenta[c] pyrrole-2-carboxamide] | – | > 10000
COc1cccc(C[C@]2(O)C[C@H]3CN(CC(O)c4ccc(O)c(F)n4)C[C@H]3C2)c1 (mixture of isomers) [Example 201, rac-(3aR,5r,6aS)-2-(2-(6-fluoro-5-hydroxypyridin-2-yl)-2-hydroxyethyl)-5-(3-methoxy-benzyl)octahydro-cyclopenta[c]pyrrol-5-ol] | 382 | –
CC(C)(C)c1ccc([C@]2(O)C[C@H]3CN(CC(O)c4cccc(C(F)(F)F)c4)C[C@H]3C2)cc1 (mixture of isomers) [Example 70, rac-5-(4-(tert-butyl)phenyl)-2-(2-hydroxy-2-(3-(trifluoromethyl)phenyl)ethyl)octahydrocyclo-penta[c]pyrrol-5-ol] | ≥ 10000 | > 10000
[2H]C(O)(CN1C[C@@H]2C[C@@](O)(Cc3ccccc3)C[C@@H]2C1)c1ccc(O)cc1 (mixture of isomers) [Example 281, deuterated rac-(3aR,6aS)-5-benzyl-2-((S)-2-hydroxy-2-(4-hydroxyphenyl)ethyl) octahydrocyclopenta [c]pyrrol-5-ol] | 17.4 | < 100
CC(C)(O)c1ccc(C(O)CN2C[C@@H]3C[C@@](O)(c4ccccc4)C[C@@H]3C2)cc1 (mixture of isomers) [Example 69, rac-2-(2-hydroxy-2-(4-(2-hydroxypropan-2-yl)phenyl)ethyl)-5-phenyloctahydrocyclo-penta[c]pyrrol-5-ol] | ≥ 10000 | > 10000
Oc1ccc(C(O)CN2CC3(C2)CC(O)(Cc2ccccc2)C3)cc1 (racemic) [Example 343, rac-6-benzyl-2-(2-hydroxy-2-(4-hydroxyphenyl)ethyl)-2-azaspiro[3.3]heptan-6-ol] | 506 | –
Cc1ccccc1[C@]1(O)C[C@H]2CN(C(=O)Nc3cccc(Cl)c3)C[C@H]2C1 [Example 11] | – | > 10000
COc1cccc([C@]2(O)C[C@H]3CN(C(C)C(O)c4ccc(O)cc4)C[C@H]3C2)c1 (mixture of isomers) [Example 78, rac-2-(1-hydroxy-1-(4-hydroxyphenyl)propan-2-yl)-5-(3-methoxy-phenyl)octahydro-cyclopenta[c]pyrrol-5-ol] | ≥ 10000 | > 10000
Oc1ccc(C(O)CN2C[C@H]3C[C@H](Cc4ccccc4)C[C@H]3C2)cc1 (mixture of isomers) [Example 306, rac-4-{2-[(3aR,5R,6aS)-5-benzyl-octahydrocyclopenta[c]pyrrol-2-yl]-1-hydroxyethyl}phenol] | 11.7 | < 100
COc1cccc(C[C@]2(O)C[C@H]3CN(CC(O)c4ccc(O)cn4)C[C@H]3C2)c1 (mixture of isomers) [Example 196, rac-((3aR,r,6aS)-2-(2-hydroxy-2-(5-hydroxypyridin-2-yl)ethyl)-5-(3-meth-oxybenzyl)octahydro-cyclopenta[c]pyrrol-5-ol] | 66 | –
COc1cccc([C@]2(O)C[C@H]3CN(C(=O)Nc4ccc(C)cc4C)C[C@H]3C2)c1 [Example 49] | ≥ 10000 | > 10000
Oc1ccc(C(O)CN2C[C@@H]3C[C@@](O)(CCc4ccccc4)C[C@@H]3C2)cc1 (mixture of isomers) [Example 321, rac-2-(2-hydroxy-2-(4-hydroxyphenyl)ethyl)-5-phenethyloctahydro-cyclopenta[c] pyrrol-5-ol] | ≥ 10000 | > 10000
Oc1ccc(C(O)CN2C[C@@H]3C[C@@](O)(Cc4ccccc4Cl)C[C@@H]3C2)nc1 (mixture of isomers) [Example 246, rac-(3aR,5r,6aS)-5-(2-chlorobenzyl)-2-(2-hydroxy-2-(5-hydroxypyridin-2-yl)ethyl)octahydrocyclo-penta[c]pyrrol-5-ol] | 50.3 | –
Cc1cc(F)ccc1C[C@]1(O)C[C@H]2CN(CC(O)c3ccc(O)cn3)C[C@H]2C1 (mixture of isomers) [Example 243, rac-(3aR,5r,6aS)-5-(4-fluoro-2-methylbenzyl)-2-(2-hydroxy-2-(5-hydroxypyridin-2-yl)ethyl)octahydrocyclo-penta[c]pyrrol-5-ol] | 75.7 | –
Oc1ccc(C(O)CN2C[C@@H]3C[C@@](O)(Cc4ccc(F)cc4)C[C@@H]3C2)nc1 (mixture of isomers) [Example 168, rac-(3aR,5r,6aS)-5-(4-fluorobenzy)-2-(2-hydroxy-2-(5-hydroxypyridin-2-yl)ethyl)octahydrocyclo-penta[c]pyrrol-5-ol] | 17.8 | –
Oc1ccc(C(O)CN2C[C@@H]3C[C@@](O)(Cc4ccc(F)cc4F)C[C@@H]3C2)nc1 (mixture of isomers) [Example 233, rac-(3aR,5r,6aS)-5-(2,4-difluorobenzyl)-2-(2-hydroxy-2-(5-hydroxypyridin-2-yl)ethyl)octahydrocyclo-penta[c]pyrrol-5-ol] | 29.9 | < 100

SMILES | IC50 [1] [nM] | IC50 [2] [nM]
Cc1ccccc1[C@]1(O)C[C@H]2CN(C(=O)Nc3cccc(C#N)c3)C[C@H]2C1 [Example 31, N-(3-cyanophenyl)-5-hydroxy-5-(2-methylphenyl)-octahydrocyclopenta[c] pyrrole-2-carboxamide] | – | > 10000
COc1cccc([C@]2(O)C[C@H]3CN(C(=O)Nc4cccc(C(F)(F)F)c4)C[C@H]3C2)c1 [Example 16] | ≥ 10000 | > 10000
Oc1ccc(C(O)CN2C[C@@H]3C[C@@](O)(Cc4ccccc4)C[C@@H]3C2)nc1 (mixture of isomers) [Example 144, rac-(3aR,5r,6aS)-5-benzyl-2-(2-hydroxy-2-(5-hydroxypyridin-2-yl)ethyl)octahydrocyclo-penta[c]pyrrol-5-ol] | 26.8 | < 100
COc1cccc([C@]2(O)C[C@H]3CN(CC(O)c4ccc(Cl)cc4Cl)C[C@H]3C2)c1 (mixture of isomers) [Example 74, rac-2-[2-(2,4-dichlorophenyl)-2-hydroxyethyl]-5-(3-methoxyphenyl)-octahydrocyclopenta[c] pyrrol-5-ol] | ≥ 10000 | > 10000
Cc1cc(C)cc(C[C@]2(O)C[C@H]3CN(CC(O)c4ccc(O)cn4)C[C@H]3C2)c1 (mixture of isomers) [Example 208, rac-6-{2-[(3aR,5R,6aS)-5-[(3,5-dimethylphenyl)methyl]-5-hydroxy-octahydrocyclopenta[c]pyrrol-2-yl]-1-hydroxyethyl}pyridin-3-ol-3-ol] | 666 | –
CC(=O)Nc1ccc(C(O)CN2C[C@@H]3C[C@@](O)(Cc4ccccc4)C[C@@H]3C2)cc1 (mixture of isomers) [Example 149, rac-N-(4-(2-((3aR,5r,6aS)-5-benzyl-5-hydroxyhexahydrocyclo-penta[c]pyrrol-2(1H)-yl)-1-hydroxyethyl)phenyl)acet-amide] | 2310 | –
OC(CN1C[C@@H]2C[C@@](O)(c3ccccc3)C[C@@H]2C1)c1cccc(F)c1 (mixture of isomers) [Example 64, rac-2-[2-(3-fluorophenyl)-2-hydroxyethyl]-5-phenyl-octahydrocyclopenta[c] pyrrol-5-ol] | ≥ 10000 | > 10000
Oc1ccc(C(O)CN2C[C@@H]3C[C@@](O)(Cc4ccc(C(F)(F)F)cc4)C[C@@H]3C2)nc1 (mixture of isomers) [Example 217, rac-6-{2-[(3aR,5R,6aS)-5-hydroxy-5-{[4-(trifluoromethyl)phenyl]methyl}-octahydrocyclopenta[c]pyrrol-2-yl]-1-hydroxyethyl}pyridin-3-ol] | 36 | –
COc1cccc(NC(=O)N2C[C@@H]3C[C@@](O)(c4ccccc4)C[C@@H]3C2)c1 [Example 7] | ≥ 10000 | > 10000
OC(CN1C[C@@H]2C[C@@](O)(Cc3ccccc3)C[C@@H]2C1)c1ccc(Cl)cc1Cl (mixture of isomers) [Example 287, rac-(3aR,5r,6aS)-5-benzyl-2-(2-(2,4-dichlorophenyl)-2-hydroxyethyl)octahydro-cyclopenta[c]pyrrol-5-ol] | ≥ 10000 | > 10000
Oc1ccc(C(O)CN2C[C@@H]3C[C@@](O)(Cc4cccs4)C[C@@H]3C2)cc1F (mixture of isomers) [Example 222, rac-2-(2-(3-fluoro-4-hydroxyphenyl)-2-hydroxyethyl)-5-(thiophen-2-ylmethyl)octahydrocyclo-penta[c]pyrrol-5-ol] | 19.3 | < 100
CC(C(=O)c1ccc(O)cc1)N1C[C@@H]2C[C@@](O)(CCc3ccccc3)C[C@@H]2C1 (mixture of isomers) [Example 319, rac-2-(5-hydroxy-5-phenethylhexa-hydrocyclo-penta[c]pyrrol-2(1H)-yl)-1-(4-hydroxyphenyl)propan-1-one] | 497 | –
CC(C(O)c1ccc(O)cc1)N1C[C@@H]2C[C@](F)(Cc3ccccc3)C[C@@H]2C1 (mixture of isomers) [Example 318, rac-4-(2-((3aR,5s,6aS)-5-benzyl-5-fluoro-hexahydrocyclopen-ta[c]pyrrol-2(1H)-yl)-1-hydroxypropyl)phenol] | 12800 | –
OC(CN1C[C@@H]2C[C@@](O)(Cc3ccccc3)C[C@@H]2C1)c1ccc2[nH]nnc2c1 (mixture of isomers) [Example 186, rac-(3aR,5R,6aS)-2-[2-(1H-1,2,3-benzotriazol-5-yl)-2-hydroxyethyl]-5-benzyl-octahydrocyclopenta[c] pyrrol-5-ol] | 748 | 100 to 1000
N#Cc1cccc(NC(=O)N2C[C@@H]3C[C@@](O)(Cc4ccccc4)C[C@@H]3C2)c1 [Example 123, (3aR,5r,6aS)-5-benzyl-N-(3-cyanophenyl)-5-hydroxyhexahydrocyclo-penta[c]pyrrole-2(1H)-carboxamide] | ≥ 10000 | > 10000
Oc1ccc(C(O)CN2C[C@@H]3C[C@@](O)(CC4CC4)C[C@@H]3C2)cc1 (mixture of isomers) [Example 211, rac-(3aR,5r,6aS)-5-(cyclopropylmethyl)-2-(2-hydroxy-2-(4-hydroxyphenyl)ethyl) octahydrocyclopenta [c]pyrrol-5-ol] | ≥ 10000 | > 10000
